Tested on: Sprague-Dawley rats
Experiment: Prepulse inhibition (PPI) of startle
Assay type: in vivo, rat
Conditions: for startle amplitudes: all experimental groups; for PPI of startle at PP3: vs offspring of unexposed parents
From the text: Sixty-four G1 rats (32 control and 32 sevoflurane exposed) and 122 G2 rats, which were not exposed to sevoflurane anesthesia and were subjected to animal facility rearing only, were studied. The G1 rats were sequentially evaluated in the EPM starting on ~P125, PPI of the acoustic startle response on ~P135 and MWM starting ~on P145 (FIG. 1). One half of these animals were sacrificed on ≥P160 to collect trunk blood, brain and testis and ovarian tissues for further analyses. The rest of these animals were physically restrained for 30 min on ≥P160 to measure corticosterone responses, followed by collection of tissue samples (as above) for further analyses. The G2 rats were evaluated in the EPM starting on P60 and PPI of startle on P70 (FIG. 1). One half of these animals were sacrificed on ≥P95 to collect trunk blood and brain tissue samples for further analyses, and the rest of these animals were tested for the corticosterone responses to physical restraint for 30 min on ≥P95 before collecting the trunk blood and brain tissue samples.
The PPI of startle tests were performed using a SR-Lab startle apparatus (San Diego Instruments, San Diego, CA) as previously described.^5-7 The % PPI for each prepulse level was calculated using the following formula: % PPI=100×[(pulse alone)−(prepulse+pulse)]/pulse alone. Data were collected as Vmax amplitude.

PPI of startle responses (G1 male rats, prepulse intensity of 3 dB, vs control): impaired PPI of startle responses
startle amplitudes (G2 female rats): similar
PPI of startle (G2 female rats, parental sevoflurane exposure): no significant treatment effect
startle amplitudes (G2 male rats): similar
PPI of startle at PP3 (G2 males of both exposed parents): reduced PPI of startle
PPI of startle at PP3 (G2 males of control fathers and exposed mothers): reduced PPI of startle
SMILES: FCOC(C(F)(F)F)C(F)(F)F [sevoflurane, 1,1,1,3,3,3-hexafluoro-2-(fluoromethoxy)propane]

Source: patent US12721823B2, “Methods and compositions for treatment of low circulating testosterone conditions” (University of Florida Research Foundation, Inc., priority 2021, dated 2026)
